Measured values as given in patent US20230303549A1, “SUBSTITUTED HETEROARYLOXYPYRIDINES, THE SALTS THEREOF AND THEIR USE AS HERBICIDAL AGENTS” (Bayer Aktiengesellschaft, priority 2020, published 2023).

Experiments:
Format in all cases: in vivo
[1] = system: Alopecurus myosuroides (ALOMY); test: Pre-emergence herbicide efficacy at 80 g/ha, greenhouse pot test; conditions: visual scoring vs untreated control after about 3 weeks
In short: (§1)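 Seeds were sown in pots and covered with soil, then the compound (WP or EC formulation) was sprayed onto the soil surface as an aqueous suspension or emulsion with 0.5% additive. Pots were kept in a greenhouse, and after about 3 weeks activity was scored visually versus untreated controls (100% = plants dead, 0% = like control).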

[2] = system: Digitaria sanguinalis (DIGSA); test: as above; conditions: visual scoring vs untreated control after about 3 weeks
In short: as §1

[3] = system: Matricaria inodora (MATIN); test: as above; conditions: visual scoring vs untreated control after about 3 weeks
In short: as §1

[4] = system: Abutilon theophrasti (ABUTH); test: as above; conditions: visual scoring vs untreated control after about 3 weeks
In short: as §1

Veronica persica (VERPE) [5] = test: as above; conditions: visual scoring vs untreated control after about 3 weeks
In short: as §1

Viola tricolor (VIOTR) [6] = test: as above; conditions: visual scoring vs untreated control after about 3 weeks
In short: as §1

Setaria viridis (SETVI) [7] = test: as above; conditions: visual scoring vs untreated control after about 3 weeks
In short: as §1

[8] = system: Amaranthus retroflexus (AMARE); test: as above; conditions: visual scoring vs untreated control after about 3 weeks
In short: as §1

Avena fatua (AVEFA) = test: as above; conditions: visual scoring vs untreated control after about 3 weeks
In short: as §1

[9] = system: Polygonum convolvulus (POLCO); test: as above; conditions: visual scoring vs untreated control after about 3 weeks
In short: as §1

Ipomoea purpurea (PHBPU) = test: as above; conditions: visual scoring vs untreated control after about 3 weeks
In short: as §1

[10] = system: Alopecurus myosuroides (ALOMY); test: Post-emergence herbicidal efficacy at 80 g/ha, greenhouse pot test; conditions: visual rating vs untreated control after about 3 weeks
In short: (§2)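 Visual rating of activity versus untreated plants after about 3 greenhouse weeks, 0% meaning control-like and 100% meaning dead. Plants in sandy loam were sprayed at one-leaf stage (2–3 weeks post-sowing) with WP/EC compound suspensions or emulsions, 0.5% additive, 600 l/ha water.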

Veronica persica (VERPE) [11] = test: as above; conditions: visual rating vs untreated control after about 3 weeks
In short: as §2

Viola tricolor (VIOTR) [12] = test: as above; conditions: visual rating vs untreated control after about 3 weeks
In short: as §2

[13] = system: Amaranthus retroflexus (AMARE); test: as above; conditions: visual rating vs untreated control after about 3 weeks
In short: as §2

[14] = system: Polygonum convolvulus (POLCO); test: as above; conditions: visual rating vs untreated control after about 3 weeks
In short: as §2

[15] = system: Alopecurus myosuroides (ALOMY); test: Pre-emergence herbicide efficacy at 320 g/ha, greenhouse pot test; conditions: visual scoring vs untreated control after about 3 weeks
In short: (§3)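 Sandy loam pots held seeds of a single weed species each. The test compound was sprayed pre-emergence in 600 L/ha water with 0.5% additive. Effect was rated visually in % against untreated controls after ~3 weeks.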

Stellaria media (STEME) [16] = test: as above; conditions: visual scoring vs untreated control after about 3 weeks
In short: as §3

[17] = system: Digitaria sanguinalis (DIGSA); test: as above; conditions: visual scoring vs untreated control after about 3 weeks
In short: as §3

[18] = system: Matricaria inodora (MATIN); test: as above; conditions: visual scoring vs untreated control after about 3 weeks
In short: as §3

[19] = system: Abutilon theophrasti (ABUTH); test: as above; conditions: visual scoring vs untreated control after about 3 weeks
In short: as §3

Veronica persica (VERPE) [20] = test: as above; conditions: visual scoring vs untreated control after about 3 weeks
In short: as §3

[21] = system: Echinochloa crus-galli (ECHCG); test: as above; conditions: visual scoring vs untreated control after about 3 weeks
In short: as §3

Setaria viridis (SETVI) [22] = test: as above; conditions: visual scoring vs untreated control after about 3 weeks
In short: as §3

[23] = system: Amaranthus retroflexus (AMARE); test: as above; conditions: visual scoring vs untreated control after about 3 weeks
In short: as §3

Poa annua (POAAN) [24] = test: as above; conditions: visual scoring vs untreated control after about 3 weeks
In short: as §3

[25] = system: Alopecurus myosuroides (ALOMY); test: Post-emergence herbicidal efficacy at 320 g/ha, greenhouse pot test; conditions: visual rating vs untreated control after about 3 weeks
In short: (§4)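 Visual percent activity (0% = like control, 100% = plants dead) is scored about 3 weeks after treatment, relative to untreated plants. Compounds go on as wettable powder or emulsion concentrate with 0.5% additive at 600 liters per hectare water, at the one-leaf stage.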

Stellaria media (STEME) [26] = test: as above; conditions: visual rating vs untreated control after about 3 weeks
In short: as §4

Veronica persica (VERPE) [27] = test: as above; conditions: 320 g/ha, visual rating vs untreated control after about 3 weeks
In short: as §4

[28] = system: Echinochloa crus-galli (ECHCG); test: as above; conditions: visual rating vs untreated control after about 3 weeks
In short: as §4

[29] = system: Amaranthus retroflexus (AMARE); test: as above; conditions: visual rating vs untreated control after about 3 weeks
In short: as §4

Bassia scoparia (KCHSC) [30] = test: Pre-emergence herbicide efficacy at 320 g/ha, greenhouse pot test; conditions: dosage 1280 g/ha in Table C6, visual scoring after about 3 weeks
In short: as §3

Lolium rigidum (LOLRI) [31] = test: Post-emergence herbicidal efficacy at 320 g/ha, greenhouse pot test; conditions: visual rating vs untreated control after about 3 weeks
In short: as §4

[32] = system: Abutilon theophrasti (ABUTH); test: as above; conditions: visual rating vs untreated control after about 3 weeks
In short: as §4

Setaria viridis (SETVI) [33] = test: as above; conditions: visual rating vs untreated control after about 3 weeks
In short: as §4

Bassia scoparia (KCHSC) [34] = test: as above; conditions: visual rating vs untreated control after about 3 weeks
In short: as §4

Poa annua (POAAN) [35] = test: as above; conditions: visual rating vs untreated control after about 3 weeks
In short: as §4

Lolium rigidum (LOLRI) [36] = test: Pre-emergence herbicide efficacy at 320 g/ha, greenhouse pot test; conditions: visual scoring vs untreated control after about 3 weeks
In short: as §3

[37] = system: Echinochloa crus-galli (ECHCG); test: Pre-emergence herbicide efficacy at 80 g/ha, greenhouse pot test; conditions: visual scoring vs untreated control after about 3 weeks
In short: as §1

Setaria viridis (SETVI) [38] = test: Post-emergence herbicidal efficacy at 80 g/ha, greenhouse pot test; conditions: visual rating vs untreated control after about 3 weeks
In short: as §2

Row | Compound | Pre-emergence efficacy against Alopecurus myosuroides (ALOMY) [1] | Pre-emergence efficacy against Matricaria inodora (MATIN) [3] | Pre-emergence efficacy against Abutilon theophrasti (ABUTH) [4] | Pre-emergence efficacy against Veronica persica (VERPE) (Veronica persica (VERPE) [5]) | Pre-emergence efficacy against Viola tricolor (VIOTR) (Viola tricolor (VIOTR) [6]) | Pre-emergence efficacy against Setaria viridis (SETVI) (Setaria viridis (SETVI) [7]) | Pre-emergence efficacy against Amaranthus retroflexus (AMARE) [8] | Pre-emergence efficacy against Polygonum convolvulus (POLCO) [9] | Post-emergence efficacy against Amaranthus retroflexus (AMARE) [13] | Pre-emergence efficacy against Stellaria media (STEME) (Stellaria media (STEME) [16]) | Pre-emergence efficacy against Matricaria inodora (MATIN) [18] | Pre-emergence efficacy against Abutilon theophrasti (ABUTH) [19] | Pre-emergence efficacy against Veronica persica (VERPE) (Veronica persica (VERPE) [20]) | Pre-emergence efficacy against Echinochloa crus-galli (ECHCG) [21] | Pre-emergence efficacy against Setaria viridis (SETVI) (Setaria viridis (SETVI) [22]) | Pre-emergence efficacy against Amaranthus retroflexus (AMARE) [23] | Pre-emergence efficacy against Poa annua (POAAN) (Poa annua (POAAN) [24]) | Post-emergence action against Stellaria media (STEME) (Stellaria media (STEME) [26]) | Post-emergence efficacy against Veronica persica (VERPE) (Veronica persica (VERPE) [27]) | Post-emergence efficacy against Amaranthus retroflexus (AMARE) [29] | also measured
1 | Cc1cc(C)c(-c2cc(C(F)F)no2)c(Oc2ncc(F)cn2)n1 [Example I-4] | 90% | 90% | 100% | 100% | 100% | 100% | 100% | 90% | 100% |  |  |  |  |  |  |  |  |  |  |  | Pre-emergence efficacy against Digitaria sanguinalis (DIGSA) [2]: 100%; Pre-emergence efficacy against Avena fatua (AVEFA) (Avena fatua (AVEFA)): 80%; Pre-emergence efficacy against Ipomoea purpurea (PHBPU) (Ipomoea purpurea (PHBPU)): 80%; Post-emergence efficacy against Alopecurus myosuroides (ALOMY) [10]: 90%; Post-emergence efficacy against Veronica persica (VERPE) (Veronica persica (VERPE) [11]): 90%; Post-emergence efficacy against Viola tricolor (VIOTR) (Viola tricolor (VIOTR) [12]): 80%; Post-emergence efficacy against Polygonum convolvulus (POLCO) [14]: 90%
2 | Cc1cc(C)c(-c2cc(C(F)(F)F)on2)c(Oc2ncc(Cl)cn2)n1 [Example I-7] | 100% | 90% | 100% | 90% | 100% | 100% | 100% | 90% | 80% | 100% | 100% | 100% | 100% | 100% | 100% | 100% | 100% | 100% | 100% | 90% | Pre-emergence efficacy against Alopecurus myosuroides (ALOMY) [15]: 90%; Pre-emergence efficacy against Digitaria sanguinalis (DIGSA) [17]: 100%; Post-emergence efficacy against Alopecurus myosuroides (ALOMY) [25]: 90%; Post-emergence efficacy against Echinochloa crus-galli (ECHCG) [28]: 90%; Post-emergence efficacy against Alopecurus myosuroides (ALOMY) [10]: 90%; Post-emergence efficacy against Viola tricolor (VIOTR) (Viola tricolor (VIOTR) [12]): 90%
3 | Cc1cc(C)c(-c2cc(C(F)F)no2)c(Oc2ncc(Br)cn2)n1 [Example I-41] | 80% | 80% | 80% | 80% | 80% | 80% | 100% | 90% | 90% | 100% | 100% | 100% | 100% | 90% | 100% | 100% | 100% | 100% | 100% | 100% | Pre-emergence efficacy against Alopecurus myosuroides (ALOMY) [15]: 90%; Pre-emergence efficacy against Bassia scoparia (KCHSC) (Bassia scoparia (KCHSC) [30]): 100%; Post-emergence efficacy against Lolium rigidum (LOLRI) (Lolium rigidum (LOLRI) [31]): 90%; Post-emergence efficacy against Abutilon theophrasti (ABUTH) [32]: 90%; Post-emergence efficacy against Setaria viridis (SETVI) (Setaria viridis (SETVI) [33]): 90%; Post-emergence efficacy against Bassia scoparia (KCHSC) (Bassia scoparia (KCHSC) [34]): 100%; Post-emergence efficacy against Poa annua (POAAN) (Poa annua (POAAN) [35]): 100%; Post-emergence efficacy against Veronica persica (VERPE) (Veronica persica (VERPE) [11]): 90%; Post-emergence efficacy against Polygonum convolvulus (POLCO) [14]: 80%
4 | Cc1cc(C)c(-c2cc(C(F)F)no2)c(Oc2ccc(Cl)cn2)n1 [Example I-43] |  | 90% |  | 90% | 80% | 90% | 100% |  |  | 100% | 90% | 100% | 100% | 90% | 100% | 100% | 100% | 100% | 100% | 100% | Pre-emergence efficacy against Bassia scoparia (KCHSC) (Bassia scoparia (KCHSC) [30]): 100%; Post-emergence efficacy against Alopecurus myosuroides (ALOMY) [25]: 90%; Post-emergence efficacy against Abutilon theophrasti (ABUTH) [32]: 90%; Post-emergence efficacy against Echinochloa crus-galli (ECHCG) [28]: 90%; Post-emergence efficacy against Poa annua (POAAN) (Poa annua (POAAN) [35]): 90%; Post-emergence efficacy against Viola tricolor (VIOTR) (Viola tricolor (VIOTR) [12]): 80%
5 | Cc1cc(C)c(-n2cc(I)cn2)c(Oc2ncc(F)cn2)n1 [Example I-294] | 90% | 100% | 90% |  | 100% | 100% | 100% | 90% | 80% | 100% | 100% | 100% | 100% | 100% | 100% | 100% | 100% | 100% | 100% | 100% | Pre-emergence efficacy against Lolium rigidum (LOLRI) (Lolium rigidum (LOLRI) [36]): 100%; Pre-emergence efficacy against Bassia scoparia (KCHSC) (Bassia scoparia (KCHSC) [30]): 100%; Pre-emergence efficacy against Echinochloa crus-galli (ECHCG) [37]: 90%; Pre-emergence efficacy against Ipomoea purpurea (PHBPU) (Ipomoea purpurea (PHBPU)): 100%; Post-emergence efficacy against Abutilon theophrasti (ABUTH) [32]: 90%; Post-emergence efficacy against Poa annua (POAAN) (Poa annua (POAAN) [35]): 90%; Post-emergence efficacy against Setaria viridis (SETVI) (Setaria viridis (SETVI) [38]): 90%; Post-emergence efficacy against Polygonum convolvulus (POLCO) [14]: 80%
